Test results as given in ChEMBL document CHEMBL4507280 (2021).

Experiments:
[1] = molecular target: TRAF2 and NCK-interacting protein kinase (Homo sapiens) (UniProt Q9UKE5); conditions: Compound concentration 1000.0 nM
[2] = molecular target: Serine/threonine-protein kinase OSR1 (Homo sapiens) (UniProt O95747); conditions: Compound concentration 1000.0 nM
[3] = molecular target: 5-hydroxytryptamine receptor 2C (Homo sapiens) (UniProt P28335); conditions: Compound concentration 10.0 uM
[4] = molecular target: Serine/threonine-protein kinase PAK 1 (Homo sapiens) (UniProt Q13153); conditions: Compound concentration 1000.0 nM
[5] = molecular target: Aurora kinase B (Homo sapiens) (UniProt Q96GD4); conditions: Compound concentration 1000.0 nM
[6] = molecular target: Beta-2 adrenergic receptor (Homo sapiens) (UniProt P07550); conditions: Compound concentration 10.0 uM
[7] = molecular target: Cyclin-dependent kinase-like 2 (Homo sapiens) (UniProt Q92772); conditions: Compound concentration 1000.0 nM
[8] = molecular target: Serine/threonine-protein kinase TBK1 (Homo sapiens) (UniProt Q9UHD2); conditions: Compound concentration 1000.0 nM
[9] = molecular target: Kappa-type opioid receptor (Homo sapiens) (UniProt P41145); conditions: Compound concentration 10.0 uM
[10] = molecular target: Muscarinic acetylcholine receptor M5 (Homo sapiens) (UniProt P08912); conditions: Compound concentration 10.0 uM
[11] = molecular target: Hormonally up-regulated neu tumor-associated kinase (Homo sapiens) (UniProt P57058); conditions: Compound concentration 1000.0 nM
[12] = molecular target: Serine/threonine-protein kinase 36 (Homo sapiens) (UniProt Q9NRP7); conditions: Compound concentration 1000.0 nM
[13] = molecular target: Mitogen-activated protein kinase kinase kinase 12 (Homo sapiens) (UniProt Q12852); conditions: Compound concentration 1000.0 nM
[14] = molecular target: MAP kinase-interacting serine/threonine-protein kinase 1 (Homo sapiens) (UniProt Q9BUB5); conditions: Compound concentration 1000.0 nM
[15] = molecular target: Epithelial discoidin domain-containing receptor 1 (Homo sapiens) (UniProt Q08345); conditions: Compound concentration 1000.0 nM
[16] = molecular target: Serine/threonine-protein kinase N1 (Homo sapiens) (UniProt Q16512); conditions: Compound concentration 1000.0 nM
[17] = molecular target: G protein-coupled receptor kinase 3 (Homo sapiens) (UniProt P35626); conditions: Compound concentration 1000.0 nM
[18] = molecular target: Sodium-dependent noradrenaline transporter (Homo sapiens) (UniProt P23975); conditions: Compound concentration 10.0 uM
[19] = molecular target: Serine/threonine-protein kinase TAO3 (Homo sapiens) (UniProt Q9H2K8); conditions: Compound concentration 1000.0 nM
[20] = molecular target: Serine/threonine-protein kinase RIO3 (Homo sapiens) (UniProt O14730); conditions: Compound concentration 1000.0 nM
[21] = molecular target: Mitogen-activated protein kinase 10 (Homo sapiens) (UniProt P53779); conditions: Compound concentration 1000.0 nM
[22] = molecular target: Serine/threonine-protein kinase 33 (Homo sapiens) (UniProt Q9BYT3); conditions: Compound concentration 1000.0 nM
[23] = molecular target: Receptor-type tyrosine-protein kinase FLT3 (Homo sapiens) (UniProt P36888); conditions: Compound concentration 1000.0 nM
[24] = molecular target: Serine/threonine-protein kinase D1 (Homo sapiens) (UniProt Q15139); conditions: Compound concentration 1000.0 nM
[25] = molecular target: Mitogen-activated protein kinase 6 (Homo sapiens) (UniProt Q16659); conditions: Compound concentration 1000.0 nM
[26] = molecular target: Ephrin type-B receptor 3 (Homo sapiens) (UniProt P54753); conditions: Compound concentration 1000.0 nM
[27] = molecular target: Mitogen-activated protein kinase kinase kinase kinase 1 (Homo sapiens) (UniProt Q92918); conditions: Compound concentration 1000.0 nM
[28] = molecular target: BDNF/NT-3 growth factors receptor (Homo sapiens) (UniProt Q16620); conditions: Compound concentration 1000.0 nM
[29] = molecular target: Serine/threonine-protein kinase MARK2 (Homo sapiens) (UniProt Q7KZI7); conditions: Compound concentration 1000.0 nM
[30] = molecular target: Platelet-derived growth factor receptor alpha (Homo sapiens) (UniProt P16234); conditions: Compound concentration 1000.0 nM
[31] = molecular target: Calcium-dependent protein kinase 1 (Plasmodium falciparum) (UniProt P62344); conditions: Compound concentration 1000.0 nM
[32] = molecular target: Mitogen-activated protein kinase kinase kinase 3 (Homo sapiens) (UniProt Q99759); conditions: Compound concentration 1000.0 nM
[33] = molecular target: Tyrosine-protein kinase ABL2 (Homo sapiens) (UniProt P42684); conditions: Compound concentration 1000.0 nM
[34] = molecular target: Myotonin-protein kinase (Homo sapiens) (UniProt Q09013); conditions: Compound concentration 1000.0 nM
[35] = molecular target: Serine/threonine-protein kinase VRK2 (Homo sapiens) (UniProt Q86Y07); conditions: Compound concentration 1000.0 nM
[36] = system: Receptor-type tyrosine-protein kinase FLT3 (Homo sapiens), P36888 [K663Q]; conditions: Compound concentration 1000.0 nM
[37] = molecular target: Inhibitor of nuclear factor kappa-B kinase subunit beta (Homo sapiens) (UniProt O14920); conditions: Compound concentration 1000.0 nM
[38] = molecular target: Casein kinase I isoform gamma-2 (Homo sapiens) (UniProt P78368); conditions: Compound concentration 1000.0 nM
[39] = molecular target: Serine/threonine-protein kinase 17A (Homo sapiens) (UniProt Q9UEE5); conditions: Compound concentration 1000.0 nM
[40] = system: Phosphatidylinositol 4,5-bisphosphate 3-kinase catalytic subunit alpha isoform (Homo sapiens), P42336 [E542K]; conditions: Compound concentration 1000.0 nM
[41] = molecular target: Mitogen-activated protein kinase kinase kinase 7 (Homo sapiens) (UniProt O43318); conditions: Compound concentration 1000.0 nM
[42] = molecular target: Vascular endothelial growth factor receptor 3 (Homo sapiens) (UniProt P35916); conditions: Compound concentration 1000.0 nM
[43] = molecular target: Microtubule-associated serine/threonine-protein kinase 1 (Homo sapiens) (UniProt Q9Y2H9); conditions: Compound concentration 1000.0 nM
[44] = molecular target: 5-hydroxytryptamine receptor 2A (Homo sapiens) (UniProt P28223); conditions: Compound concentration 10.0 uM
[45] = molecular target: Interleukin-1 receptor-associated kinase 4 (Homo sapiens) (UniProt Q9NWZ3); conditions: Compound concentration 1000.0 nM

Chain of Aurora kinase B (Homo sapiens) (Q96GD4 whole entry): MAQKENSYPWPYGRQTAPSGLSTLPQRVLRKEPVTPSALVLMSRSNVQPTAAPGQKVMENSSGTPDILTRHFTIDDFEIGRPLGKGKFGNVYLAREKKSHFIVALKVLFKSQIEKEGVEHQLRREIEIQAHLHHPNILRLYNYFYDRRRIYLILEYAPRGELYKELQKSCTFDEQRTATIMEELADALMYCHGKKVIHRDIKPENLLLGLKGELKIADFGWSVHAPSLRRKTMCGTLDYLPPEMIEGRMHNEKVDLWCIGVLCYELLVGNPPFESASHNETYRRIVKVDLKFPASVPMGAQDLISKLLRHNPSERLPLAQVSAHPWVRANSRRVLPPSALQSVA
Chain of Ephrin type-B receptor 3 (Homo sapiens) (P54753 whole entry): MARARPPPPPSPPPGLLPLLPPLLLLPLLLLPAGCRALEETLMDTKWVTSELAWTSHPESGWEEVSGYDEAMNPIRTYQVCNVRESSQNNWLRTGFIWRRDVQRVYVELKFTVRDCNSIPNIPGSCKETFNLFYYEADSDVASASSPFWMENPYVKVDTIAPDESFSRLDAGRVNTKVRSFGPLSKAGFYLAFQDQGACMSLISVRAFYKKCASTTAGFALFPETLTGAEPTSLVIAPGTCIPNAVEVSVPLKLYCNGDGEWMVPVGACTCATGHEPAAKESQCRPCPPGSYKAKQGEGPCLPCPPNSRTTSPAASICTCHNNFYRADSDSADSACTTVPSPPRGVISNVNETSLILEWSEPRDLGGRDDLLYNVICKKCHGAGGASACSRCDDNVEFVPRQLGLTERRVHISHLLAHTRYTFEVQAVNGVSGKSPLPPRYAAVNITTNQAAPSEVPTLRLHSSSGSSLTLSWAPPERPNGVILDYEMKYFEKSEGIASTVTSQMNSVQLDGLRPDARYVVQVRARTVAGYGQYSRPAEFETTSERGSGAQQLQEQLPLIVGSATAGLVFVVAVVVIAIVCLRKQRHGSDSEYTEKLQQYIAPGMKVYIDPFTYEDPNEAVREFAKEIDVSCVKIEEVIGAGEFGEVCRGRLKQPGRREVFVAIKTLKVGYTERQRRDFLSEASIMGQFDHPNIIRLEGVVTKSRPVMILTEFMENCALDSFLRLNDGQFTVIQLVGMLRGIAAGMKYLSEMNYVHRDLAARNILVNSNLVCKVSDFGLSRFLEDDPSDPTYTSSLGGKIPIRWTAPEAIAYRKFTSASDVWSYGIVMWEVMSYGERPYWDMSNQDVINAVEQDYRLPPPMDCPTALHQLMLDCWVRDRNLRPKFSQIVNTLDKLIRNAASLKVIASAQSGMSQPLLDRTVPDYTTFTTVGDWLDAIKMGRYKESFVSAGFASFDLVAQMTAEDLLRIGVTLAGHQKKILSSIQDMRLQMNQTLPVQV
Chain of Myotonin-protein kinase (Homo sapiens) (Q09013 whole entry): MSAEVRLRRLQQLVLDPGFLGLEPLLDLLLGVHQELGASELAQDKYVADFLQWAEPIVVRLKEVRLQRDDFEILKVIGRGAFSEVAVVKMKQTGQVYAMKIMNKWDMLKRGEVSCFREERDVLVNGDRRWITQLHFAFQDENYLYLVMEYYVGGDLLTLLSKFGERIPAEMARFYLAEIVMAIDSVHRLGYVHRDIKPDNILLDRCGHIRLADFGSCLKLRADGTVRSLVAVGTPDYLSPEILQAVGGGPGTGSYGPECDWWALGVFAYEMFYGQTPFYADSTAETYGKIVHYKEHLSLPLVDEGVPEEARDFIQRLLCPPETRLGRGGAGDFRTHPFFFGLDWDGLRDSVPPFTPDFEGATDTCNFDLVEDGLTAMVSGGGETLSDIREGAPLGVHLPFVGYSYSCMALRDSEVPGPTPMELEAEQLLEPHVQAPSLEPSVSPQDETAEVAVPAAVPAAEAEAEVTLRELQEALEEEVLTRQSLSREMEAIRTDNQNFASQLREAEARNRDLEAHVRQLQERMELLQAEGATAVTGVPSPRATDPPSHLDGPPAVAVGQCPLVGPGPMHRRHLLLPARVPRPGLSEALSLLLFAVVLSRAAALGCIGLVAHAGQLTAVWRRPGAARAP
Chain of 5-hydroxytryptamine receptor 2A (Homo sapiens) (P28223 whole entry): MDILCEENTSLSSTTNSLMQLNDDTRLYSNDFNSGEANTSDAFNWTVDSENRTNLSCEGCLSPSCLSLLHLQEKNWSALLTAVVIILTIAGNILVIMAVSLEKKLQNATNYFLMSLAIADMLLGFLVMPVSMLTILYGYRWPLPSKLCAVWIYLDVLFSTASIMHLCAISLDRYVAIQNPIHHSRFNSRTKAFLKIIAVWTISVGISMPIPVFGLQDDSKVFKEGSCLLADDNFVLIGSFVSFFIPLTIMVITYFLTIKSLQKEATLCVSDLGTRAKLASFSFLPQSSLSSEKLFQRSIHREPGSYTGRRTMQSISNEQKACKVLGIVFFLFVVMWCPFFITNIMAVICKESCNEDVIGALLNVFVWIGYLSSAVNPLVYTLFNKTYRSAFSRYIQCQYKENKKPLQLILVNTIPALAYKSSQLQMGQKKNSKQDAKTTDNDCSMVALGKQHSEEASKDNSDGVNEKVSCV
Chain of Serine/threonine-protein kinase MARK2 (Homo sapiens) (Q7KZI7 whole entry): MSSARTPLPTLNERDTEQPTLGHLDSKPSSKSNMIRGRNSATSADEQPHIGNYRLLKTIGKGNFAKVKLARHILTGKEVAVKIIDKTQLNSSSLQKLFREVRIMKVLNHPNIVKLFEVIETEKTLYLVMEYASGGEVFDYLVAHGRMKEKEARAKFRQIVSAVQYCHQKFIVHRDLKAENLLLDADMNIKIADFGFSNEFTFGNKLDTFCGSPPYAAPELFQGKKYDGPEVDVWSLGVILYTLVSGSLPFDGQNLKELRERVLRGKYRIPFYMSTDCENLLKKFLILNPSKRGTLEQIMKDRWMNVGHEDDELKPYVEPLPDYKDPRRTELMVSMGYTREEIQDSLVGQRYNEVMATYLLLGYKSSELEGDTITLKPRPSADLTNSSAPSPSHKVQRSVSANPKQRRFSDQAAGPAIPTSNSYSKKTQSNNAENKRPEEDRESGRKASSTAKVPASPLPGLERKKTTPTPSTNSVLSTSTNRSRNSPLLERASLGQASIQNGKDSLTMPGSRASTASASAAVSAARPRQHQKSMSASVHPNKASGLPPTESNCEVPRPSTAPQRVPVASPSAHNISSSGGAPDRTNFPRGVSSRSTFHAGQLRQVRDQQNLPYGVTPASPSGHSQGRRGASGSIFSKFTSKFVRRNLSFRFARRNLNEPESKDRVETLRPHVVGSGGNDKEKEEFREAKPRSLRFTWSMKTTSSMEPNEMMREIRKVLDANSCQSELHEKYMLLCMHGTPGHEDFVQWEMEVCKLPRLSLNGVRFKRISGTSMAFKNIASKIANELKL
Chain of Inhibitor of nuclear factor kappa-B kinase subunit beta (Homo sapiens) (O14920 whole entry, canonical isoform): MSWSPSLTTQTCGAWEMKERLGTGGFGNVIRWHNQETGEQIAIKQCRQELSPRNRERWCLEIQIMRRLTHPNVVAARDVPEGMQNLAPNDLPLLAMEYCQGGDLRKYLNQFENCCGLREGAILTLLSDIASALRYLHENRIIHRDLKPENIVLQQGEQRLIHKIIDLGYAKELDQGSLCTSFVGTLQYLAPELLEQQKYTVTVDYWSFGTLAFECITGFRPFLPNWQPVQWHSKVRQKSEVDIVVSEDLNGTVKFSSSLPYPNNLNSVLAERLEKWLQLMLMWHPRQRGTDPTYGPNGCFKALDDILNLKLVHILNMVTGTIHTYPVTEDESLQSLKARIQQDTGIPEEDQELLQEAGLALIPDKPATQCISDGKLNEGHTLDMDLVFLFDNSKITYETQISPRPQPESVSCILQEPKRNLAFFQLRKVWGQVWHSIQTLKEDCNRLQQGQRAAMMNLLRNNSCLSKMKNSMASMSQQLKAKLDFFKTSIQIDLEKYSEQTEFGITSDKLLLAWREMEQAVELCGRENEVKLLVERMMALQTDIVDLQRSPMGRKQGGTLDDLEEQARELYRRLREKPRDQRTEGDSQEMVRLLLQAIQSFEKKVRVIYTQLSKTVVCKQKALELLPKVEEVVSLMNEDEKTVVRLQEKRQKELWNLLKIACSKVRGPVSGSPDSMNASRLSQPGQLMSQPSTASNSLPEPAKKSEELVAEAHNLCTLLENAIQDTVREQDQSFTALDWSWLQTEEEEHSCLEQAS
Chain of Hormonally up-regulated neu tumor-associated kinase (Homo sapiens) (P57058 whole entry): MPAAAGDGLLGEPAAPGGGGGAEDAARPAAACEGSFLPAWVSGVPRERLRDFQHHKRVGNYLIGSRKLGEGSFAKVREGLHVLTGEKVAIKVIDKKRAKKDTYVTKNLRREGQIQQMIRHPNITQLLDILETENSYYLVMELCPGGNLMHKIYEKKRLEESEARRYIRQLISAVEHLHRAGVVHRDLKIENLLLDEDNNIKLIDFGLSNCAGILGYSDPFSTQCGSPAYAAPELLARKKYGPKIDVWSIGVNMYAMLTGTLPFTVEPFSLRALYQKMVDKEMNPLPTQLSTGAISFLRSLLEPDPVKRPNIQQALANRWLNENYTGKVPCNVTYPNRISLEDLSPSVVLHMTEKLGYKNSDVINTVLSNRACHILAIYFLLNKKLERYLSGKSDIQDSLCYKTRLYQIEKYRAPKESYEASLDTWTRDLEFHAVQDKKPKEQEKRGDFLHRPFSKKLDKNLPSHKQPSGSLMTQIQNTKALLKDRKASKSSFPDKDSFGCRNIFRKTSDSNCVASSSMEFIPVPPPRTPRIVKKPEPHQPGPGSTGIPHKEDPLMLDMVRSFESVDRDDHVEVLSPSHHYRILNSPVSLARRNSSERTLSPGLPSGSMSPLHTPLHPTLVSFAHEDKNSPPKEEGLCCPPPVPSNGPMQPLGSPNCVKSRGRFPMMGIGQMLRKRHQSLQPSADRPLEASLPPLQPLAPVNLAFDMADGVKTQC

CCC(=O)N[C@H]1CC[C@@H](C(=O)N(C)c2ccc(-c3nc4ccccc4o3)cc2)C1 [BI 99179]
inactive: residual activity [1] 100% | residual activity [2] 83% | inhibition [3] 8.87% | residual activity [4] 82% | residual activity [5] 83% | inhibition [6] 1.55% | residual activity [7] 100% | residual activity [8] 78% | inhibition [9] -6.54% | inhibition [10] -0.421% | residual activity [11] 100% | residual activity [12] 100% | residual activity [13] 100% | residual activity [14] 80% | residual activity [15] 100% | residual activity [16] 83% | residual activity [17] 80% | inhibition [18] 2.94% | residual activity [19] 70% | residual activity [20] 92% | residual activity [21] 85% | residual activity [22] 100% | residual activity [23] 85% | residual activity [24] 100% | residual activity [25] 100% | residual activity [26] 76% | residual activity [27] 100% | residual activity [28] 100% | residual activity [29] 100% | residual activity [30] 85% | residual activity [31] 83% | residual activity [32] 89% | residual activity [33] 100% | residual activity [34] 100% | residual activity [35] 90% | residual activity [36] 88% | residual activity [37] 90% | residual activity [38] 100% | residual activity [39] 91% | residual activity [40] 77% | residual activity [41] 86% | residual activity [42] 97% | residual activity [43] 100% | inhibition [44] 2.34% | residual activity [45] 87%

CCC(=O)N[C@@H]1CC[C@H](C(=O)N(C)c2ccc(-c3nc4ccccc4o3)cc2)C1 [BI 99990]
inactive: residual activity [1] 100% | residual activity [2] 100% | inhibition [3] 5.92% | residual activity [4] 82% | residual activity [5] 96% | inhibition [6] 0.247% | residual activity [7] 100% | residual activity [8] 65% | inhibition [9] 20.4% | inhibition [10] 15.4% | residual activity [11] 100% | residual activity [12] 82% | residual activity [13] 100% | residual activity [14] 95% | residual activity [15] 100% | residual activity [16] 84% | residual activity [17] 100% | inhibition [18] 14.5% | residual activity [19] 87% | residual activity [20] 100% | residual activity [21] 100% | residual activity [22] 100% | residual activity [23] 84% | residual activity [24] 98% | residual activity [25] 100% | residual activity [26] 100% | residual activity [27] 100% | residual activity [28] 100% | residual activity [29] 100% | residual activity [30] 86% | residual activity [31] 90% | residual activity [32] 96% | residual activity [33] 100% | residual activity [34] 100% | residual activity [35] 100% | residual activity [36] 100% | residual activity [37] 100% | residual activity [38] 100% | residual activity [39] 100% | residual activity [40] 84% | residual activity [41] 100% | residual activity [42] 100% | residual activity [43] 94% | inhibition [44] -9.08% | residual activity [45] 100%
